These results are taken from article PMC5496578 (Beilstein Journal of Organic Chemistry, 2017).

SMILES strings stand for the structures.

The first experiment deals with T1, human placental 17β-HSD1 (Homo sapiens, UniProt P14061).
T1 sequence (P14061 1-328): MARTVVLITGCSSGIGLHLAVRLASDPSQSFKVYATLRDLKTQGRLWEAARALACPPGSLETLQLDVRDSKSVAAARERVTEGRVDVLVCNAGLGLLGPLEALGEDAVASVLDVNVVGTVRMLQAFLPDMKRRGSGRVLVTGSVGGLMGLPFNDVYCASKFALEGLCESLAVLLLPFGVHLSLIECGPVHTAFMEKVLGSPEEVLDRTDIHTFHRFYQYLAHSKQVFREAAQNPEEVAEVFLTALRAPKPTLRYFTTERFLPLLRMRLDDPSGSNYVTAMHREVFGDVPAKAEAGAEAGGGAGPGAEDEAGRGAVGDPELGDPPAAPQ
Assay: not given
Details: method as in PMID 26476182, PMID 27424610. The following applies: precursors marked with asterisk; cited from earlier work.
For `COc1cc2c(cc1I)[C@H]1CC[C@@]3(C)C(=O)CC[C@H]3[C@@H]1CC2` [Compound 4], the IC50 was over 10000 nM.
As to `COc1ccc2c(c1I)CC[C@@H]1[C@@H]2CC[C@@]2(C)C(=O)CC[C@@H]12` [Compound 6], the IC50 is 560 nM.

Another experiment deals with T1, human placental 17β-HSD1. The experiment is described as follows: in vitro radiosubstrate incubation, 17β-HSD1 inhibition (estrone to 17β-estradiol conversion). Type of experiment: biochemical.
Conditions: not given
On the procedure: Determination of 17β-HSD1 inhibition
The inhibitory effects exerted on 17β-HSD1 activity by the newly synthesized conjugates were determined via an in vitro radiosubstrate incubation method described in detail earlier.[1]
Radiolabeled Chemicals (St. Louis, MO, USA).
NADPH cofactor, other chemicals and solvents of analytical grade purity were purchased from Sigma (St. Louis, MO, USA) and Fluka (Buchs, Switzerland).
Kieselgel-G TLC layers (Si 254 F, 0.25 mm thick) were obtained from Merck (Darmstadt, Germany). Human term placenta specimens were collected and used with the ethical approval of the Institutional Human Investigation Review Board.
Human term placenta specimens were combined and homogenized with an Ultra-Turrax in 0.1 M HEPES buffer (pH 7.3) containing 1 mM EDTA and 1 mM dithiotreitol, and the cytosol was obtained by fractionated centrifugation. The substrate tritium- […]
propylene glycol in HEPES buffer solution, whereas the test compounds were applied in 10 µl of dimethyl sulfoxide solution. (These organic solvent contents in the 200 µl […]
activity substantially.) Cofactor NADPH was used in excess concentration (100 µM).
The enzymatic reaction was started by the addition of the cytosol aliquots. Incubation was carried out at 37 °C for 2.5 min and was then stopped by the addition of ethyl […]
were added to the samples. The two steroids were separated by TLC with the solvent system dichloromethane/diisopropyl ether/ethyl acetate (70:15:15 v/v) and UV spots were used to trace the separated steroids. Spots were cut out and the radioactivity of […]
counting. Test compounds were applied at 10 µM and their inhibitory effects were expressed by relative conversions, in comparison with the transformation measured in the noninhibited control incubation. Two measurements were performed for each test compound and the mean was calculated. The IC50 values (the inhibitor concentration which decreases the enzyme activity to 50%) were determined for the […]
In these cases, conversions were measured at different concentrations in the interval 0.001–50 µM. IC50 results were calculated by using unweighted iterative least-squares logistic curve-fitting by means of the “absolute IC50 calculation” function of GraphPad Prism 4.0. The IC50 of unlabeled […]
1 Bacsa, I.; Jójárt, R.; Schneider, G.; Wölfling, J.; Maróti, P.; Herman, B. E.; Szécsi,
2 Szabó, J.; Jerkovics N.; Schneider G.; Wölfling J.; Bózsity N.; Minorics R.; Zupkó I.;
Consider `C[C@@]12CC[C@@H]3c4cc(C#Cc5ccccc5)c(O)cc4CC[C@H]3[C@@H]1CCC2=O` [Compound 8a], for which the IC50 was found to be 150 nM.
In turn, `C[C@@]12CC[C@@H]3c4cc(C#Cc5ccc(F)cc5)c(O)cc4CC[C@H]3[C@@H]1CCC2=O` [Compound 8d] came in with an IC50 of 300 nM.
`COc1ccc(CCc2cc3c(cc2O)CC[C@@H]2[C@@H]3CC[C@@]3(C)C(=O)CC[C@@H]23)cc1` [Compound 16]: the IC50 came to 470 nM.
Take `C[C@@]12CC[C@@H]3c4cc(C#Cc5ccc(C(F)(F)F)cc5)c(O)cc4CC[C@H]3[C@@H]1CCC2=O` [Compound 8e]: the IC50 worked out at 930 nM.
As for `Cc1ccc(C#Cc2cc3c(cc2O)CC[C@@H]2[C@@H]3CC[C@@]3(C)C(=O)CC[C@@H]23)cc1` [Compound 8b], the IC50 turned out to be 1400 nM.
The compound `COc1ccc(C#Cc2cc3c(cc2O)CC[C@@H]2[C@@H]3CC[C@@]3(C)C(=O)CC[C@@H]23)cc1` [Compound 8c] registered an IC50 of 230 nM.

Still in this experiment, the particulars now being: read-out: Relative conversion ± SD.
With `COc1ccc(C#Cc2c(O)ccc3c2CC[C@@H]2[C@@H]3CC[C@@]3(C)C(=O)CC[C@@H]23)cc1` [Compound 10c], the remaining activity at 10 µM is 91 ± 2%.
Consider `C[C@@]12CC[C@@H]3c4ccc(O)c(C#Cc5ccc(F)cc5)c4CC[C@H]3[C@@H]1CCC2=O` [Compound 10d], for which the remaining activity at 10 µM was 96 ± 7%.
For the compound `COc1ccc(/C=C/c2c(OC)ccc3c2CC[C@@H]2[C@@H]3CC[C@@]3(C)C(=O)CC[C@@H]23)cc1` [Compound 15], the remaining activity at 10 µM was determined as 80 ± 12%.
As for `COc1ccc(CCc2c(O)ccc3c2CC[C@@H]2[C@@H]3CC[C@@]3(C)C(=O)CC[C@@H]23)cc1` [Compound 18], the remaining activity at 10 µM is 98 ± 3%.
On to `COc1ccc(-c2cc3cc4c(cc3o2)CC[C@@H]2[C@@H]4CC[C@@]3(C)C(=O)CC[C@@H]23)cc1` [Compound 12], for which the remaining activity at 10 µM is 92 ± 2%.
Turning to `COc1cc2c(cc1C#Cc1ccc(F)cc1)[C@H]1CC[C@@]3(C)C(=O)CC[C@H]3[C@@H]1CC2` [Compound 9d], the remaining activity at 10 µM turned out to be 94 ± 5%.
For the compound `COc1ccc2c(c1C#Cc1ccc(C)cc1)CC[C@@H]1[C@@H]2CC[C@@]2(C)C(=O)CC[C@@H]12` [Compound 11b], the remaining activity at 10 µM was found to be 52 ± 12%.
Turning to `COc1cc2c(cc1C#Cc1ccc(C)cc1)[C@H]1CC[C@@]3(C)C(=O)CC[C@H]3[C@@H]1CC2` [Compound 9b], the remaining activity at 10 µM was 84 ± 5%.
Consider `COc1cc2c(cc1C#Cc1ccc(C(F)(F)F)cc1)[C@H]1CC[C@@]3(C)C(=O)CC[C@H]3[C@@H]1CC2` [Compound 9e], for which the remaining activity at 10 µM turned out to be 76 ± 1%.
As for `COc1ccc(-c2cc3c4c(ccc3o2)[C@H]2CC[C@@]3(C)C(=O)CC[C@H]3[C@@H]2CC4)cc1` [Compound 14], the remaining activity at 10 µM came to 102 ± 6%.
For `COc1ccc(CCc2c(OC)ccc3c2CC[C@@H]2[C@@H]3CC[C@@]3(C)C(=O)CC[C@@H]23)cc1` [Compound 19], the remaining activity at 10 µM came out at 94 ± 1%.
Consider `COc1ccc2c(c1C#Cc1ccc(F)cc1)CC[C@@H]1[C@@H]2CC[C@@]2(C)C(=O)CC[C@@H]12` [Compound 11d], for which the remaining activity at 10 µM was found to be 83 ± 1%.
Take `COc1ccc2c(c1C#Cc1ccc(C(F)(F)F)cc1)CC[C@@H]1[C@@H]2CC[C@@]2(C)C(=O)CC[C@@H]12` [Compound 11e]: the remaining activity at 10 µM came out at 79 ± 3%.
Consider `COc1ccc(C#Cc2cc3c(cc2OC)CC[C@@H]2[C@@H]3CC[C@@]3(C)C(=O)CC[C@@H]23)cc1` [Compound 9c], for which the remaining activity at 10 µM worked out at 85 ± 1%.
In the case of `COc1ccc2c(c1C#Cc1ccccc1)CC[C@@H]1[C@@H]2CC[C@@]2(C)C(=O)CC[C@@H]12` [Compound 11a], the remaining activity at 10 µM came to 92 ± 12%.
As to `Cc1ccc(C#Cc2c(O)ccc3c2CC[C@@H]2[C@@H]3CC[C@@]3(C)C(=O)CC[C@@H]23)cc1` [Compound 10b], the remaining activity at 10 µM was 89 ± 0.4%.
Take `COc1ccc(CCc2cc3c(cc2OC)CC[C@@H]2[C@@H]3CC[C@@]3(C)C(=O)CC[C@@H]23)cc1` [Compound 17]: the remaining activity at 10 µM came to 63 ± 8%.
On the same count and under the same terms, with `C[C@@]12CC[C@@H]3c4ccc(O)c(C#Cc5ccc(C(F)(F)F)cc5)c4CC[C@H]3[C@@H]1CCC2=O` [Compound 10e] the figure was 85 ± 1%.
For `COc1cc2c(cc1C#Cc1ccccc1)[C@H]1CC[C@@]3(C)C(=O)CC[C@H]3[C@@H]1CC2` [Compound 9a], the remaining activity at 10 µM amounted to 88 ± 12%.
In the case of `C[C@@]12CC[C@@H]3c4ccc(O)c(C#Cc5ccccc5)c4CC[C@H]3[C@@H]1CCC2=O` [Compound 10a], the remaining activity at 10 µM worked out at 92 ± 15%.
As for `COc1ccc(C#Cc2c(OC)ccc3c2CC[C@@H]2[C@@H]3CC[C@@]3(C)C(=O)CC[C@@H]23)cc1` [Compound 11c], the remaining activity at 10 µM came to 83 ± 8%.
Regarding `COc1ccc(/C=C\c2cc3c(cc2OC)CC[C@@H]2[C@@H]3CC[C@@]3(C)C(=O)CC[C@@H]23)cc1` [Compound 13], the remaining activity at 10 µM is 70 ± 6%.

A word on the IC50: it is the concentration at which inhibition is half-maximal.
